For this assay, the system named is mouse DTH model. Kind of assay: Mouse delayed-type hypersensitivity (DTH) model, oxazalone ear swelling. The following applies: BALB/c mice, oxazalone challenge of right ear, 24 hr after challenge; histology FIGS. 15C-15D. Format: in vivo. The protocol:
Mouse DTH in-vivo assay is an inflammatory model which is known as type IV hypersensitivity reactions and is mediated by soluble antigens primarily involving CD4+ or CD8+ T cell activation. This assay is characterized by the release of mediators from activated T cells. The T cells then activate local endothelial cells and recruit macrophages, which results in local inflammation and swelling. In this assay, female BALB/c mice were sensitized on the shaved abdominal skin with 100 μl of 2% oxazalone dissolved in acetone/olive oil [4:1 (vol/vol)] applied topically (day 0). DTH sensitivity was elicited 6 days later by challenging the mice with 20 μl of 0.5% oxazalone in acetone/olive oil, 10 μl administered topically to each side of the right ear. Control group was subcutaneously injected with Dexamethasone 100 μg/mouse in a total volume of 200 μl. 24 hr after challenge the swelling of the right ear was measured using a Micrometer, digital caliper (Mitutoyo Corp, Tokyo, Japan). The swelling of the left ear was served as control and the readout of this experiment model was the delta between the right and left ear (FIG. 15E).

Consider `OC1(c2ccc(Cl)c(C(F)(F)F)c2)CCN(CCCC(c2ccc(F)cc2)c2ccc(F)cc2)CC1` [Penfluridol], for which the “effect in mouse DTH model” value was “pro-inflammatory effect”.

For the origin of these results see patent publication US12650423B2, “Pharmaceutical compositions and use thereof” (HADASIT MEDICAL RESEARCH SERVICES & DEVELOPMENT LTD., priority 2020, dated 2026).
